Data published in paper PMC10687260, “1,3-Diphenylureido hydroxamate as a promising scaffold for generation of potent antimalarial histone deacetylase inhibitors” (Scientific Reports, 2023).

Columns and labels:
P. falciparum 3D7 = test: Antiplasmodial SYBR Green I proliferation assay, P. falciparum 3D7; type: cell-based, Plasmodium falciparum; conditions: Plasmodium falciparum, 3D7, 96 h, 96 h; values in brackets 95% confidence intervals; read-out: IC50 Pf3D7
Description: Antiplasmodial activity against P. falciparum 3D7 (A, C and E) and P. falciparum Dd2 (B, D, F). […] Curves were plotted using non-linear regression based on means from three independent experiments measured in triplicate. Error bars indicate standard deviation, whose values are provided in the respective table.
Plasmodium falciparum culture and antiplasmodial activity. […] Development, parasitaemia, and morphology of parasites were monitored by light microscopy of thin blood smears stained according to the Romanowsky method (Panótico Rápido staining kit; Laborclin, Pinhais, Paraná, Brazil). […] Fresh 0^+ blood was generously provided by “Hospital Novo Atibaia” (Atibaia, SP, Brazil), and approved by the ethics committee at ICB-USP. The antiplasmodial effect of all compounds was validated against P. falciparum 3D7 strain conducting SYBR Green I (Invitrogen) drug assays as previously reported[30],[46] as a modification of the original procedure. […] Parasite proliferation was measured by the DNA load via fluorescence, using 100 μL of a lysis buffer with SYBR Green I (0.02% v/v) and incubated for 1 h at room temperature in the dark. […] Focal and gain adjustment was performed using the non-treated controls (highest expected fluorescence signal). Data was acquired via the CLARIOstar (V5.20) and MARS software, manually scaled to 0–100%, and plotted using GraphPad Prism (v9.5.2 for Windows, GraphPad Software, La Jolla California USA, www.graphpad.com). Non-treated parasites, the highest solvent concentration on parasites, CQ on parasites, and the highest drug concentration in the medium were used as controls for maximal growth, solvent control, positive biological control, and native drug fluorescence, respectively.

HepG2 cells = test: Cytotoxicity in human HepG2 cells (WST-1); type: cell-based; conditions: Homo sapiens, HepG2; 48 h, WST-1; read-out: IC50 HepG2
Protocol: Cytotoxicity in human HepG2 cells.[47] […] Cytotoxic effects of compounds were assessed using the cell proliferation reagent WST-1 (Roche; CELLPRO-RO) in a 96-well plate-based screening assay. HepG2 cells were seeded at 10^4 cells/well (100 μL) in 96-well flat-bottom plates (Sarstedt) the night before the experiment to allow attachment of cells. The next day, two-fold serial dilutions of compounds were prepared in fresh medium in an extra plate, and the medium of cells was replaced by the medium containing the compound dilutions. Non-treated cells (max. proliferation), cells treated with the maximal solvent concentration (DMSO; solvent control), and medium with the maximal compound concentration (native absorbance) used as controls. […] Subsequently, 10 μL WST-1 was added to each well and plates were incubated for additional 4 h under standard conditions. WST-1 is a tetrazolium salt and is metabolised by the mitochondrial succinate-tetrazolium-reductase system of living cells and forms formazan, whose absorbance was measured at 450 nm. Absorbance at 630 nm was assessed to check for protein and precipitation background. Both measurements were acquired via the CLARIOstar (V5.20) and MARS software, manually scaled to 0–100%, and plotted with GraphPad Prism (version 9.5.2 for Windows, GraphPad Software, La Jolla California USA).

human HDAC1 = target: T1, human HDAC1 (Homo sapiens, UniProt Q13547); test: In vitro HDAC enzymatic assay, HDAC1; type: biochemical; conditions: mean ± SD
T1 construct: purchased ENZO Life Sciences AG (Lausen, CH)
T1 sequence (Q13547 whole entry): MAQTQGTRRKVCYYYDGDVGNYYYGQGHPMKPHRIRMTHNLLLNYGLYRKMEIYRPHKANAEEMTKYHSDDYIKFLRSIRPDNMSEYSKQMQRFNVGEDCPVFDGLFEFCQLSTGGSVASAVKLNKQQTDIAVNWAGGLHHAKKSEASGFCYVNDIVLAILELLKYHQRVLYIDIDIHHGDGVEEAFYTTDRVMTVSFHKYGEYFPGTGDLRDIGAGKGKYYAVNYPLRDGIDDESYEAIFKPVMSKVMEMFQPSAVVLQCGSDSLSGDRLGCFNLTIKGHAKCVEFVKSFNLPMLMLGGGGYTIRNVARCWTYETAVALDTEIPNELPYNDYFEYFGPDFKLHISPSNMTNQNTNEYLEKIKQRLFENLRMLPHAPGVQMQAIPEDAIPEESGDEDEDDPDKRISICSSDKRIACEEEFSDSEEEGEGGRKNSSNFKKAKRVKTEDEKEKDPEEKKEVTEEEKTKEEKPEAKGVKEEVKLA
Protocol: (§1) In vitro HDAC enzymatic assays. Recombinant human HDAC1 and HDAC6 were purchased from ENZO Life Sciences AG (Lausen, CH) whereas HDAC8 was produced as described before. In vitro testing of the inhibitors in an enzymatic assay was carried out as described in previous publications[32],[33]. For HDAC1 a fluorogenic peptide derived from p53 (Ac-RHKK(Acetyl)-AMC) was used. For HDAC6, the substrate (Abz-SRGGK(thio-TFA)FFRR-NH2) was used as described before.

human HDAC6 = target: T2, human HDAC6 (Homo sapiens, UniProt Q9UBN7); test: In vitro HDAC enzymatic assay, HDAC6; type: biochemical; conditions: for IC50: mean ± SD; for HDAC1/6 SI: ratio HsHDAC1 IC50/HsHDAC6 IC50
T2 construct: purchased ENZO Life Sciences AG (Lausen, CH)
T2 sequence (Q9UBN7 1-1215): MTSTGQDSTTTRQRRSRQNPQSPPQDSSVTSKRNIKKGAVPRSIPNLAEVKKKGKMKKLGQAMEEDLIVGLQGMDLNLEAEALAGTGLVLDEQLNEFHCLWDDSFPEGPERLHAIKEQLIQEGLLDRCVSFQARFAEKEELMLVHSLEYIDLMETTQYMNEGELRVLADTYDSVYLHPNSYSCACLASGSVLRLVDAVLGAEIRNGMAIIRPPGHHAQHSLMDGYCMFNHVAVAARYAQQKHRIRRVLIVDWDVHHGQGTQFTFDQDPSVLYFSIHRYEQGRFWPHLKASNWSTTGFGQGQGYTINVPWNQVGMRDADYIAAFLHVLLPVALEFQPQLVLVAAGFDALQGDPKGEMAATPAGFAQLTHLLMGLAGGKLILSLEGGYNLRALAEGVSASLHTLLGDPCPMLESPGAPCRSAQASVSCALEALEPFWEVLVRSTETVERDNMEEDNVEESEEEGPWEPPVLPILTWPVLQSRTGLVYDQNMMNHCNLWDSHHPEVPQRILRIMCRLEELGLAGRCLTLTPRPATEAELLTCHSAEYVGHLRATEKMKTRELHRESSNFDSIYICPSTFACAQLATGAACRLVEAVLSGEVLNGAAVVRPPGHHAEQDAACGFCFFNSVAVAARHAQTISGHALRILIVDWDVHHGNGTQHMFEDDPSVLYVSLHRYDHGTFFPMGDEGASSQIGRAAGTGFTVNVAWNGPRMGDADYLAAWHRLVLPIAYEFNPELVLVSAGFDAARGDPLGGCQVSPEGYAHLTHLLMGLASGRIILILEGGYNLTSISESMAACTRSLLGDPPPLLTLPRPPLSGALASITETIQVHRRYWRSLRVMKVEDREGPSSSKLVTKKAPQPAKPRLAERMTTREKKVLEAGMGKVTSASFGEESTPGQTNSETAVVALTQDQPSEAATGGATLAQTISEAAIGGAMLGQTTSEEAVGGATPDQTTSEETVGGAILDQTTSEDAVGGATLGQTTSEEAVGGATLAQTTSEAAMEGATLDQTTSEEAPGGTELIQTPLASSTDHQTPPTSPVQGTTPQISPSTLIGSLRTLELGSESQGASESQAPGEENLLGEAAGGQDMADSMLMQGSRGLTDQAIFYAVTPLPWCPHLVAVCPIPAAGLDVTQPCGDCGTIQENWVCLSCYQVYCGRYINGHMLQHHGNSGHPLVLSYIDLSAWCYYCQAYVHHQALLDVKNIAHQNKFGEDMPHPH
Protocol: as §1

HDAC8 = target: T3, HDAC8 (Homo sapiens, UniProt Q9BY41); test: In vitro HDAC enzymatic assay, HDAC8; type: biochemical; conditions: mean ± SD
T3 construct: made in house
T3 sequence (Q9BY41 1-377): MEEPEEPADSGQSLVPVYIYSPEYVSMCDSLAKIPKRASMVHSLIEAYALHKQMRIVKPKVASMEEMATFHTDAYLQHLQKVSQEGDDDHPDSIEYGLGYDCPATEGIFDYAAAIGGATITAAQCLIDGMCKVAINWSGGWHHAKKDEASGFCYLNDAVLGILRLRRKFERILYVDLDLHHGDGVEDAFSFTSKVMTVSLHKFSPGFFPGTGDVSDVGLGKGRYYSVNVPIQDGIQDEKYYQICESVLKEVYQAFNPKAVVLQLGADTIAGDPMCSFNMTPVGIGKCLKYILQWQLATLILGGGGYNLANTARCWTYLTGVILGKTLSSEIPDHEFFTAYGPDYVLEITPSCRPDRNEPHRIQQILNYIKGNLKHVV
Protocol: as §1

CYP450 2C9 = target: T4, CYP450 2C9 (Homo sapiens, UniProt P11712); test: CYP450 inhibition in human liver microsomes, 2C9; type: in vitro ADME
T4 construct: 10 μM compound was incubated with human liver microsomes and selective marker substrates; from tissue; host or cells: human liver microsomes
T4 sequence (P11712 whole entry): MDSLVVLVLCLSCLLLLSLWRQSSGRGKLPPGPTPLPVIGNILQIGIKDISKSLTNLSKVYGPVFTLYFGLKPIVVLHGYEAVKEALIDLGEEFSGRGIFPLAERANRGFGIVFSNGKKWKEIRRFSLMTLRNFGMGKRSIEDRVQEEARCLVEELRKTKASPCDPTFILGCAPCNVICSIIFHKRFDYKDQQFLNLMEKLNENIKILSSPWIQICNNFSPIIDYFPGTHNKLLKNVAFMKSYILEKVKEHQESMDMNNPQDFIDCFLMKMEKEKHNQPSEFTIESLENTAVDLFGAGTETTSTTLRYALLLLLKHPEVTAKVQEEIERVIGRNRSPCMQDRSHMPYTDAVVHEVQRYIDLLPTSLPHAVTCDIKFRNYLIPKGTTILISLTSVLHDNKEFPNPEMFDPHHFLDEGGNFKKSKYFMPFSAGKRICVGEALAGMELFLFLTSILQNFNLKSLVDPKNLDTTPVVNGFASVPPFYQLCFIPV

CYP450 2D6 = target: T5, CYP450 2D6 (Homo sapiens, UniProt P10635); test: CYP450 inhibition in human liver microsomes, 2D6; type: in vitro ADME; conditions: Tested concentration: 40 µM
T5 construct: 10 μM compound was incubated with human liver microsomes and selective marker substrates; from tissue; host or cells: human liver microsomes
T5 sequence (P10635 whole entry): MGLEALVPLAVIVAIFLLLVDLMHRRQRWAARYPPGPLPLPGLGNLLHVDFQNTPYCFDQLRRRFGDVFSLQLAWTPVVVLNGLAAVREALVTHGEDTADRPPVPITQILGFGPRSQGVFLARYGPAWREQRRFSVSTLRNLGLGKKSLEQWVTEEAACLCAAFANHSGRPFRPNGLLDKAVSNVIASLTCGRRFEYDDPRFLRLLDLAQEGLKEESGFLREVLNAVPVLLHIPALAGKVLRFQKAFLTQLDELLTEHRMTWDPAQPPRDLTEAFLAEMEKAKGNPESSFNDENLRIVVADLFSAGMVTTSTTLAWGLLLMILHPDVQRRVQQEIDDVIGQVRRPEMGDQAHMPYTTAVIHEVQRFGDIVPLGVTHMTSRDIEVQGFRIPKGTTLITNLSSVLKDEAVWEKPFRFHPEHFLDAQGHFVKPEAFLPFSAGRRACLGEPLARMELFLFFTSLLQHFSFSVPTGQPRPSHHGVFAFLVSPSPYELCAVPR

CYP1A2 = target: T6, CYP1A2 (Homo sapiens, UniProt P05177); test: CYP450 inhibition in human liver microsomes, 1A2; type: in vitro ADME; conditions: Tested concentration: 1.0 µM
T6 construct: 10 μM compound was incubated with human liver microsomes and selective marker substrates; from tissue; host or cells: human liver microsomes
T6 sequence (P05177 1-516): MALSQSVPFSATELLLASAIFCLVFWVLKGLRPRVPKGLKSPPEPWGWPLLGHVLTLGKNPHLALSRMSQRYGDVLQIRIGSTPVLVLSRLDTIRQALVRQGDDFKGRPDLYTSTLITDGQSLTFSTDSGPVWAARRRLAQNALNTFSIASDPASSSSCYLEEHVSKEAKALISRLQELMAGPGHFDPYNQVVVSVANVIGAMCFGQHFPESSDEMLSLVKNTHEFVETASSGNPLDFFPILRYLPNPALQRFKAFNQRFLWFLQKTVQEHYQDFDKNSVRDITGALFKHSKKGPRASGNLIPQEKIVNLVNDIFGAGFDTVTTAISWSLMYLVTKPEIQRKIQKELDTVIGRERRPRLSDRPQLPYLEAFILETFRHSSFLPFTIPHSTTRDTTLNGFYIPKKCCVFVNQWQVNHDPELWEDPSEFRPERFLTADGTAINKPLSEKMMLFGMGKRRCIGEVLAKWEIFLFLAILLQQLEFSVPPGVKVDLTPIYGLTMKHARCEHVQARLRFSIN

[1] = Stability in human hepatic microsomes; type: in vitro ADME
Description: (§2) DMPK evaluation. […].

[2] = Stability in mouse hepatic microsomes; type: in vitro ADME
Description: as §2

| SMILES | IC50 (P. falciparum 3D7) | IC50 (HepG2 cells) | IC50 (human HDAC6) | other results |
| --- | --- | --- | --- | --- |
| O=C(Nc1ccc(OC(F)(F)F)cc1)Nc1ccc(C(=O)NO)cc1 [8 g, N-hydroxy-4-(3-(4-(trifluoromethoxy)phenyl)ureido)benzamide] | 13900 nM | 60500 nM | – | – |
| N/C(=N\O)c1ccc(NC(=O)Nc2ccc(C(=O)NO)cc2)cc1 [8 h, (Z)-N-hydroxy-4-(3-(4-(N'-hydroxycarbamimidoyl)phenyl)ureido)benzamide] | 390 nM | > 200000 nM | 21.3 ± 0.5 nM | IC50 (human HDAC1): 8300 ± 481 nM; HDAC1/6 SI (human HDAC6): 390; IC50 (HDAC8): 164 ± 9.1 nM; melting point: 97 to 99 °C |
| N#Cc1ccc(NC(=O)Nc2ccc(C(=O)NO)cc2)cc1 [8 k, 4-(3-(4-cyanophenyl)ureido)-N-hydroxybenzamide] | 260 nM | > 200000 nM | 11.6 ± 0.2 nM | IC50 (human HDAC1): 3750 ± 563 nM; HDAC1/6 SI (human HDAC6): 323; IC50 (HDAC8): 51.5 ± 6.1 nM; melting point: 220 to 222 °C |
| O=C(/C=C/c1ccc(NC(=O)Nc2ccc(Cl)cc2)cc1)NO [Compound 6b, (E)-3-(4-(3-(4-chlorophenyl)ureido)phenyl)-N-hydroxyacrylamide] | 7880 nM | 28800 nM | 14.3 ± 2.2 nM | – |
| O=C(/C=C/c1ccc(NC(=O)Nc2ccc([N+](=O)[O-])cc2)cc1)NO [Compound 6d, (E)-N-hydroxy-3-(4-(3-(4-nitrophenyl)ureido)phenyl)acrylamide] | 1260 nM | 10400 nM | 9 ± 0.7 nM | IC50 (human HDAC1): 1110 ± 56.3 nM; HDAC1/6 SI (human HDAC6): 124; IC50 (HDAC8): 99.1 ± 10.9 nM; melting point: 167 to 168 °C |
| O=C(CCc1ccc(NC(=O)Nc2ccc(Cl)cc2)cc1)NO [Compound 7b, 3-(4-(3-(4-chlorophenyl)ureido)phenyl)-N-hydroxypropanamide] | 7040 nM | > 50000 nM | 185 ± 21.6 nM | IC50 (human HDAC1): 4780 ± 446 nM; HDAC1/6 SI (human HDAC6): 26; IC50 (HDAC8): 568 ± 40.5 nM; melting point: 286 °C (dec.) |
| Cc1ccc(NC(=O)Nc2ccc(C(=O)NO)cc2)cc1 [Compound 8e, N-hydroxy-4-(3-(p-tolyl)ureido)benzamide] | 340 nM | > 200000 nM | – | – |
| O=C(Nc1ccc(F)cc1)Nc1ccc(C(=O)NO)cc1 [Compound 8f., 4-(3-(4-fluorophenyl)ureido)-N-hydroxybenzamide] | 400 nM | 116000 nM | – | – |
| O=C(Nc1ccc(C(=O)NO)cc1)Nc1ccc(C(F)(F)F)cc1 [Compound 8i, N-hydroxy-4-(3-(4-(trifluoromethyl)phenyl)ureido)benzamide] | 1300 nM | 25100 nM | – | – |
| Nc1ccc(NC(=O)Nc2ccc(C(=O)NO)cc2)cc1 [Compound 8j, 4-(3-(4-aminophenyl)ureido)-N-hydroxybenzamide] | 350 nM | > 200000 nM | – | – |
| Nc1ccc(C(=O)NO)cc1 [Compound 15, 4-amino-N-hydroxybenzamide] | 6300 nM | > 200000 nM | – | – |
| Cc1nc2c([nH]1)c(=O)n(C)c(=O)n2Cc1ccco1 [Furafylline, reference compound] | – | – | – | CYP450% inhibition 2C9 (CYP450 2C9; Tested concentration: 40 µM): * (Inhibition < 10%); CYP450% inhibition 2D6 (CYP450 2D6): * (Inhibition < 10%) |
| CC(=O)N1CCN(c2ccc(OCC3COC(Cn4ccnc4)(c4ccc(Cl)cc4Cl)O3)cc2)CC1 (stereo not drawn) [Ketoconazole, reference compound] | – | – | – | CYP450% inhibition 1A2 (CYP1A2): * (Inhibition < 10%); CYP450% inhibition 2C9 (CYP450 2C9; Tested concentration: 1.0 µM): * (Inhibition < 10%) |
| CCN(CC)CCNC(=O)c1c(C)[nH]c(/C=C2\C(=O)Nc3ccc(F)cc32)c1C [Sunitinib, reference compound] | – | – | – | half-life at 1 µM ([1]; 1 mg/mL hepatic microsomes, 1 µM compound, read-out: Half-life t1/2 Human): 22.3 min; microsomal CLint at 1 µM ([1]; read-out: Intrinsic clearance Clint Human): 31 µL/min/mg; half-life at 1 µM ([2]; 1 mg/mL hepatic microsomes, 1 µM compound, read-out: Half-life t1/2 Mouse): 9.1 min; microsomal CLint at 1 µM ([2]; read-out: Intrinsic clearance Clint Mouse): 76 µL/min/mg |
